Measured values taken from ChEMBL document CHEMBL1122477, “Neuroleptic activity and dopamine-uptake inhibition in 1-piperazino-3-phenylindans” (J Med Chem, 1983).

Legend:
Rattus norvegicus [1] = assay: Compound was tested orally (po) in rats for antagonism of stereotypies induced by amphetamine; value ranges from 2.5-4.7; assay type: functional
Rattus norvegicus [2] = assay: Compound was tested orally (po) in rats for its ability to induce catalepsy, an effect normally related to clinical extrapyramidal side effects;value ranges from 1.3-3.4; assay type: functional
Mus musculus [3] = organism: Mus musculus; assay: animal or person; conditions: ip
Description: (§1) Compound (administered intraperitoneally) was assessed for neuroleptic activity to antagonize methyl phenidate induced stereotypes in mice

Rattus norvegicus [4] = assay: Tested orally in rats for antagonism of stereotypies induced by amphetamine; assay type: functional; conditions: Rattus norvegicus, po; read-out: ED50
[5] = biological target: T1, Sodium-dependent serotonin transporter (Rattus norvegicus, UniProt P31652)
T1 sequence (P31652 whole entry): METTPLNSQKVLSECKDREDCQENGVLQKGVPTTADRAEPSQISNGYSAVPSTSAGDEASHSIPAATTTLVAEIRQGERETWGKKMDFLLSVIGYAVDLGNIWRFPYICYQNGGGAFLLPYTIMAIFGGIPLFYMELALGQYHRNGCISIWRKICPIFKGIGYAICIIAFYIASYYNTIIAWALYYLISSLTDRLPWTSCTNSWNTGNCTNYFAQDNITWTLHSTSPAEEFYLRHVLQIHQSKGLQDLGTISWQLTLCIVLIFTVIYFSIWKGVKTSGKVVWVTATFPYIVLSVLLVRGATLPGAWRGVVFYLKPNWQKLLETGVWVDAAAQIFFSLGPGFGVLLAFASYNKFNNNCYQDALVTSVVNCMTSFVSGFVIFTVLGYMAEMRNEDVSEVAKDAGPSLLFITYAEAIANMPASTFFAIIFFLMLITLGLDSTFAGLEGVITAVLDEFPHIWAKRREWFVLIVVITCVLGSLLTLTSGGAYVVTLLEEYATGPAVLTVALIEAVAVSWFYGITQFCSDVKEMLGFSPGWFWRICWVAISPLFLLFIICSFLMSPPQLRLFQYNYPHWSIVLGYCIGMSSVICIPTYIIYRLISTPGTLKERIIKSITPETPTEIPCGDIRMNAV

[6] = biological target: Sodium-dependent dopamine transporter (Rattus norvegicus, UniProt P23977)
Sodium-dependent dopamine transporter, sequence (P23977 whole entry): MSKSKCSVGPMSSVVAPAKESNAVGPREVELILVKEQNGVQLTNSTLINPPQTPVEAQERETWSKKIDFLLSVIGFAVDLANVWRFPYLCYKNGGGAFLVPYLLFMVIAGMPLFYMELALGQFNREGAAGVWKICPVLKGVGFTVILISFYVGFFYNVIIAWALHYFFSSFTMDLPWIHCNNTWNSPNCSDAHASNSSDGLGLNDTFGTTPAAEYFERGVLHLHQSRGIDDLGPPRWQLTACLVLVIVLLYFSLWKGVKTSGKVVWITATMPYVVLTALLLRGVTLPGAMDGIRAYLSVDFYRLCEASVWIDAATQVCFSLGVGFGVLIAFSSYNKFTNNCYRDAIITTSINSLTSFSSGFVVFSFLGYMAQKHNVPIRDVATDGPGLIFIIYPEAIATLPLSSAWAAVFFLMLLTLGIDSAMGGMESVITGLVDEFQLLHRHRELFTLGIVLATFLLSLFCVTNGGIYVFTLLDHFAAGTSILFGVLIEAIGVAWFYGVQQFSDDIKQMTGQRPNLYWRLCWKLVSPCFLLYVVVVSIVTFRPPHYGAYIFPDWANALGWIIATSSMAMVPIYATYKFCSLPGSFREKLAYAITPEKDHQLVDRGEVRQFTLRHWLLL
Description: Effect on synaptosomal uptake inhibition of Dopamine transporter

Mus musculus [7] = organism: Mus musculus
Description: as §1

Adrenergic receptor beta = Adrenergic receptor beta (Rattus norvegicus, UniProt P18090+P10608+P26255)
Description: (§2) Effect on synaptosomal uptake inhibition of Noradrenaline (NA)

Rattus norvegicus [8] = organism: Rattus norvegicus; assay: animal or person; conditions: po
Description: (§3) Ability to induce catalepsy in rats perorally, an effect normally related to clinical extrapyramidal side effects

[9] = biological target: T1, Sodium-dependent serotonin transporter; assay: Effect on synaptosomal uptake inhibition of 5-hydroxytryptamine (5-HT); assay type: functional
Mus musculus [10] = organism: Mus musculus; assay: Compound was assessed for thymoleptic activity by its ability to antagonize tetrabenazine ptosis in mice; assay type: functional
[11] = biological target: Norepinephrine transporter (Rattus norvegicus, UniProt Q9WTR4)
Norepinephrine transporter, sequence (Q9WTR4 whole entry): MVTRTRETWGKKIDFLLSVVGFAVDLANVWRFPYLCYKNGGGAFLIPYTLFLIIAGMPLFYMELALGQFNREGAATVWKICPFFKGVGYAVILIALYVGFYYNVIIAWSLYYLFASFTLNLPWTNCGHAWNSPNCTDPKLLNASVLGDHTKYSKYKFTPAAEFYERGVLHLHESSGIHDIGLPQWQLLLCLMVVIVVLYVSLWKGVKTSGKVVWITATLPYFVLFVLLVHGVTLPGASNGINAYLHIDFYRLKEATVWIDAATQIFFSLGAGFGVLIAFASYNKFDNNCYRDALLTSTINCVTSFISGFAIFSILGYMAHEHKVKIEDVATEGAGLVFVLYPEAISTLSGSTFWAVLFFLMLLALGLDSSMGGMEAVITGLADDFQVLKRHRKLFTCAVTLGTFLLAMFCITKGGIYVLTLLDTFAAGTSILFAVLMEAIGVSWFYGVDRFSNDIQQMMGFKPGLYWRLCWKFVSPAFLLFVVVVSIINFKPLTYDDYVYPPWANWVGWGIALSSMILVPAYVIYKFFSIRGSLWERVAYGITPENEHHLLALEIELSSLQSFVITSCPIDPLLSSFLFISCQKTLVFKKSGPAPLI
Description: as §2

Rattus norvegicus [12] = organism: Rattus norvegicus
Description: as §3

Description for Dopamine receptor: Effect on synaptosomal uptake inhibition of Dopamine receptor

| Structure (SMILES) | ED50 (Rattus norvegicus [4]) | IC50 [5] | IC50 [6] | ED50 (Mus musculus [7]) | IC50 (Adrenergic receptor beta) | IC50 [9] | ED50 (Mus musculus [10]) | IC50 [11] | further results |
| --- | --- | --- | --- | --- | --- | --- | --- | --- | --- |
| OCCN1CCN(CC/C=C2/c3ccccc3Sc3ccc(C(F)(F)F)cc32)CC1 [Z-FLUPENTIXOL] |  |  |  |  |  |  |  |  | ED50 (Rattus norvegicus [1]): 3.5 µmol/kg; ED50 (Rattus norvegicus [2]): 2.1 µmol/kg; ED50 (Mus musculus [3]): 0.14 µmol/kg |
| Cl.Cl.OCCCCN1CCN(C2CC(c3ccc(F)cc3)c3ccc(F)cc32)CC1 (trans isomer) | 7.7 µmol/kg | 0.61 µM | 0.025 µM | 6.5 µM/kg | 0.019 µM |  |  |  | ED50 (Rattus norvegicus [8]): 47 µmol/kg |
| CN(C)C[C@@H]1C2CCC(CC2)[C@@H]1c1ccc(Cl)c(Cl)c1 (relative stereo) |  |  |  |  |  | 0.051 µM | 43 µmol/kg | 0.0054 µM |  |
| OCCN1CCN(C2CC(c3ccc(F)cc3)c3ccc(C(F)(F)F)cc32)CC1 (trans isomer) | 0.22 µmol/kg | 7 µM | 0.52 µM | 0.07 µM/kg | 0.66 µM |  |  |  | ED50 (Rattus norvegicus [12]): 0.27 µM/kg |
| CN1CCN(C2CC(c3ccc(Cl)c(Cl)c3)c3ccccc32)CC1.Cl.Cl (single isomer, unassigned; 98) |  |  |  |  |  | 2.3 µM | > 89 µmol/kg | 0.91 µM | IC50 (Dopamine receptor): 1.7 µM |
| Cl.Cl.OCCCCN1CCN(C2CC(c3ccc(F)cc3)c3ccc(F)cc32)CC1 (cis isomer) |  | 1.9 µM | 0.009 µM | 54 µM/kg | 0.03 µM |  |  |  |  |
